Results as given in EP2119434A1, “Use of heterosidic flavonoid derivatives for therapy of stem cell cancers” (INSTITUT NATIONAL DE LA SANTE ET DE LA RECHERCHE MEDICALE …, priority 2008, dated 2009).

Tested on: U937
Experiment: Adhesion and cytotoxic assay (CAM-DR protocol, fibronectin), cell viability
Format: cell-based
Details: in vitro, adherent U937 (not shown)
Excerpt: Fresh AML cells were obtained from bone marrow of patients upon informed consent, using Ficoll-Hypaque density-gradient centrifugation. […] For in vitro experiments, blasts were resuspended in IMDM. All patients were diagnosed according to WHO classification at the Hematology Department of Toulouse University Hospital (France). Normal bone marrow CD34+ and CD34- hematopoietic cells were harvested from healthy volunteers upon informed consent and obtained after positive selection of CD34-expressing cells by the means of immunomagnetic separation column (Miltenyi Biotech, Bergisch Gladbach, Germany). Fresh blood samples were collected from healthy adult donors and PBMC (Peripheral Blood Mononuclear Cells) were prepared on a Ficoll-Paque density gradient by centrifugation (800 g, 30 min at room temperature).
Adhesion assays were performed in 96-well plates coated overnight at 4°C with 40 µg/mL of human fibronectin (Roche Molecular Biochemicals, Mannheim, Germany) in a final volume of 50 µL in PBS. Each well was blocked with 1% fatty acid-free BSA in PBS, 1 h at room temperature and washed with PBS before seeding the cells. Cells were diluted at 3x10^5/mL overnight and then were serum starved for 1 h at 1x10^6/mL, incubated or not with plant extract/fraction and purified alkaloid or flavonoid compounds. Control assays were treated with corresponding solvents (water, water/ethanol, DMSO) at a 1/100 dilution. Cells were then allowed to adhere on fibronectin (10^5 cells/well) for 1 h at 37°C or maintained in suspension. In some experiments, both cells in suspension and adherent were treated with 0.5 µM daunorubicin (DNR) (Laboratoire Roger Bellon, Neuilly-sur-Seine, France) for 1 h at 37°C. At the end of the incubation period, cells were washed and incubated in serum containing medium for 24 h at 37°C. Cell viability was then quantified by methyl thiazolyl tetrazolium (MTT) assay (Sigma) or by the Annexin V-FITC detection kit from BD PharMingen. Experiments were performed in triplicate and results were evaluated as the percentage of surviving cells compared to the control group.
Aqueous extracts were prepared from dried H. scoparia leaves and serial dilutions were assayed for cytotoxicity over leukemic cells either in suspension or in adhesion following CAM-DR protocol.

Compound	specific proapoptotic effect on adherent U937 cells
NCC(O)c1ccc(O)cc1 (stereo not shown) [norsynephrine]	none of these compounds displayed a specific proapoptotic effect
N-methylisosalsoline	none of these compounds displayed a specific proapoptotic effect
COc1cc(O)c2c(=O)c(O)c(-c3ccc(O)c(O)c3)oc2c1 [rhamnetin]	none of these compounds displayed a specific proapoptotic effect
NCCc1c[nH]c2ccccc12 [tryptamine]	none of these compounds displayed a specific proapoptotic effect
